Reference: ChEMBL document CHEMBL1641578, “Design and synthesis of 3-(azol-1-yl)phenylpropanes as microbicidal spermicides for prophylactic contraception” (Bioorg Med Chem Lett, 2011)
Values after ≈ are worked out from the molar mass of the structure shown.

Key:
[1] = Toxicity against Lactobacillus acidophilus at 200 ug/ml after 24 hrs by microplate reader
HeLa = experiment: Cytotoxicity against human HeLa cells at 200 ug/ml after 24 hrs by MTT based colorimetric assay; type: cell-based
Spermatozoa = experiment: Spermicidal activity against human spermatozoa assessed as immobilization measured for 60 seconds by visual scoring; type: functional; set-up: concentration or dose not given beside the values
Trichomonas vaginalis = experiment: Antitrichomonas activity against Trichomonas vaginalis after 48 hrs by trypan blue exclusion assay; type: functional
Candida albicans [2] = experiment: Antifungal activity against Candida albicans after 48 hrs by broth microdilution assay; type: functional
Candida parapsilosis = experiment: Antifungal activity against Candida parapsilosis after 48 hrs by broth microdilution assay; type: functional; settings: Lodderomyces parapsilosis
Candida albicans [3] = experiment: Antifungal activity against Candida albicans MTCC-183 after 48 hrs by broth microdilution assay; type: functional; settings: MTCC-183, 48 h
Candida albicans [4] = experiment: Antifungal activity against Candida albicans isolate CDRI after 48 hrs by broth microdilution assay; type: functional
Candida albicans [5] = experiment: Antifungal activity against Candida albicans NCIM-3557 after 48 hrs by broth microdilution assay; type: functional; settings: NCIM-3557, 48 h

| SMILES | Activity [1] | Activity (HeLa) | Activity (Spermatozoa) [%] | MIC (Trichomonas vaginalis) [µg/mL] | MIC (Candida albicans [2]) [µg/mL] | MIC (Candida parapsilosis) [µg/mL] | MIC (Candida albicans [3]) [µg/mL] | MIC (Candida albicans [4]) [µg/mL] | MIC (Candida albicans [5]) [µg/mL] |
| --- | --- | --- | --- | --- | --- | --- | --- | --- | --- |
| O=C(CCn1ccnc1)c1ccccc1 | Non-toxic | Non-toxic | 100 | > 200 | > 50 | > 50 | > 50 | 50 (≈ 250 µM) | > 50 |
| O=C(CCn1cnc2ccccc21)c1ccccc1 | Non-toxic | Non-toxic | 100 | 200 (≈ 799 µM) | 25 (≈ 99.9 µM) | 50 (≈ 200 µM) | > 50 | 25 (≈ 99.9 µM) | 50 (≈ 200 µM) |
| O=C(CCn1cncn1)c1ccccc1 | Non-toxic | Non-toxic | 60 | > 200 | > 50 | > 50 | > 50 | 50 (≈ 248 µM) | > 50 |
| O=C(CCn1nnc2ccccc21)c1ccccc1 | Non-toxic | Non-toxic | 80 | 200 (≈ 796 µM) | > 50 | 50 (≈ 199 µM) | > 50 | > 50 | 50 (≈ 199 µM) |
| Cc1nccn1CCC(=O)c1ccccc1 | Non-toxic | Toxic | 100 | > 200 | > 50 | > 50 | > 50 | 50 (≈ 233 µM) | > 50 |
| O=C(CCn1cnc([N+](=O)[O-])c1)c1ccccc1 | Non-toxic | Non-toxic | 100 | 25 (≈ 102 µM) | 50 (≈ 204 µM) | > 50 | > 50 | 50 (≈ 204 µM) | > 50 |
| Cc1ncc([N+](=O)[O-])n1CCC(=O)c1ccccc1 | Non-toxic | Non-toxic | 90 | 50 (≈ 193 µM) | > 50 | > 50 | > 50 | 50 (≈ 193 µM) | > 50 |
| OC(CCn1ccnc1)c1ccccc1 (stereo not given) | Non-toxic | Non-toxic | 90 | > 200 | > 50 | > 50 | > 50 | 50 (≈ 247 µM) | > 50 |
| OC(CCn1cnc2ccccc21)c1ccccc1 (stereo not given) | Non-toxic | Non-toxic | 90 | > 200 | > 50 | > 50 | > 50 | 50 (≈ 198 µM) | > 50 |
| OC(CCn1cncn1)c1ccccc1 (stereo not given) | Non-toxic | Non-toxic | 70 | > 200 | > 50 | > 50 | > 50 | > 50 | > 50 |
| OC(CCn1nnc2ccccc21)c1ccccc1 (stereo not given) | Non-toxic | Non-toxic | 100 | > 200 | > 50 | > 50 | > 50 | 50 (≈ 197 µM) | > 50 |
| Cc1nccn1CCC(O)c1ccccc1 (stereo not given) | Non-toxic | Non-toxic | 100 | > 200 | > 50 | > 50 | > 50 | > 50 | > 50 |
| O=[N+]([O-])c1cn(CCC(O)c2ccccc2)cn1 (stereo not given) | Non-toxic | Non-toxic | 95 | 25 (≈ 101 µM) | > 50 | > 50 | > 50 | 50 (≈ 202 µM) | > 50 |
| Cc1ncc([N+](=O)[O-])n1CCC(O)c1ccccc1 (stereo not given) | Non-toxic | Non-toxic | 70 | 50 (≈ 191 µM) | > 50 | > 50 | > 50 | > 50 | > 50 |
| FC(F)(F)c1ccc(OC(CCn2cnc3ccccc32)c2ccccc2)cc1 (stereo not given) | Toxic | Toxic | 50 | 25 (≈ 63.1 µM) | > 50 | > 50 | > 50 | > 50 | > 50 |
| FC(F)(F)c1ccc(OC(CCn2cncn2)c2ccccc2)cc1 (stereo not given) | Toxic | Toxic | 100 | 50 (≈ 144 µM) | 50 (≈ 144 µM) | > 50 | 50 (≈ 144 µM) | > 50 | > 50 |
| FC(F)(F)c1ccc(OC(CCn2nnc3ccccc32)c2ccccc2)cc1 (stereo not given) | Non-toxic | Non-toxic | 70 | > 200 | > 50 | > 50 | > 50 | > 50 | > 50 |
| Cc1nccn1CCC(Oc1ccc(C(F)(F)F)cc1)c1ccccc1 (stereo not given) | Toxic | Toxic | 100 | 25 (≈ 69.4 µM) | 25 (≈ 69.4 µM) | 50 (≈ 139 µM) | 25 (≈ 69.4 µM) | 50 (≈ 139 µM) | 50 (≈ 139 µM) |
| O=[N+]([O-])c1cn(CCC(Oc2ccc(C(F)(F)F)cc2)c2ccccc2)cn1 (stereo not given) | Non-toxic | Non-toxic | 40 | 12.5 (≈ 31.9 µM) | > 50 | > 50 | > 50 | > 50 | > 50 |
| Cc1ncc([N+](=O)[O-])n1CCC(Oc1ccc(C(F)(F)F)cc1)c1ccccc1 (stereo not given) | Non-toxic | Non-toxic | 70 | 25 (≈ 61.7 µM) | > 50 | > 50 | > 50 | > 50 | > 50 |
| C(=C\c1ccccc1)/Cn1ccnc1 | Non-toxic | Non-toxic | 100 | > 200 | > 50 | 50 (≈ 271 µM) | > 50 | 25 (≈ 136 µM) | > 50 |
| O=[N+]([O-])c1cn(C/C=C/c2ccccc2)cn1 | Non-toxic | Non-toxic | 80 | 25 (≈ 109 µM) | > 50 | > 50 | > 50 | > 50 | > 50 |
| Cc1ncc([N+](=O)[O-])n1C/C=C/c1ccccc1 | Non-toxic | Non-toxic | 90 | 25 (≈ 103 µM) | 50 (≈ 206 µM) | > 50 | > 50 | > 50 | > 50 |
| FC(F)(F)c1ccc(OC/C=C/c2ccccc2)cc1 | Non-toxic | Non-toxic | 90 | > 200 | > 50 | > 50 | > 50 | 50 (≈ 180 µM) | > 50 |
| FC(F)(F)c1ccc(OC(CCn2ccnc2)c2ccccc2)cc1 (stereo not given) | Toxic | Toxic | 100 | 12.5 (≈ 36.1 µM) | 12.5 (≈ 36.1 µM) | 50 (≈ 144 µM) | 50 (≈ 144 µM) | 50 (≈ 144 µM) | 50 (≈ 144 µM) |
| OC(Cn1cncn1)(Cn1cncn1)c1ccc(F)cc1F [FLUCONAZOLE] |  |  |  |  | 0.5 (≈ 1.63 µM) | 0.5 (≈ 1.63 µM) | 0.25 (≈ 0.816 µM) | 0.25 (≈ 0.816 µM) | 0.25 (≈ 0.816 µM) |
| Cc1ncc([N+](=O)[O-])n1CCO [METRONIDAZOLE] |  |  |  | 2 (≈ 11.7 µM) |  |  |  |  |  |
| CCCCCCCCCc1ccc(OCCOCCOCCOCCOCCOCCOCCOCCOCCO)cc1 [NONOXYNOL 9] | Non-toxic | Non-toxic | 100 | 37.4 (≈ 60.6 µM) | > 50 | 50 (≈ 81.1 µM) | > 50 | > 50 | > 50 |
